Test results: US6825182B2, “17α-fluoroalkyl-11β-benzaldoxime steroids, process for their production, pharmaceutical preparations that contain these steroids as well as their use for the production of pharmaceutical agents” (Schering AG, priority 2002, dated 2004)

Assays:
pregnancy in rats = experiment: Early abortive action in rats after subcutaneous administration from the 5th to 7th day of pregnancy; type: in vivo, rat; conditions: s.c., day 5-7 of pregnancy; for Complete Inhibition of Pregnancy (empty uteri) N#/N: nonpregnant females/paired females
Text: (§1) The methods for the in-vitro tests and the in-vivo tests with the compounds according to the invention can be found in EP 0 411 733 A2 and DE 43 32 283 A1: […]

Progesterone Receptor = experiment: Receptor bond: relative molar binding affinity to the progesterone receptor; conditions: Progesterone = 100%
Text: as §1

Glucocorticoid Receptor = experiment: Receptor bond: relative molar binding affinity to the glucocorticoid receptor; conditions: Dexamethasone = 100%
[1] = cited from earlier work
tumor models = conditions: in vivo; cited from earlier work

Row | Compound | Complete Inhibition of Pregnancy (empty uteri) (pregnancy in rats; 0.3 mg/animal/day) | Complete Inhibition of Pregnancy (empty uteri) N#/N (pregnancy in rats; 0.3 mg/animal/day) | Complete Inhibition of Pregnancy (empty uteri) (pregnancy in rats; 1 mg/animal/day) | Complete Inhibition of Pregnancy (empty uteri) N#/N (pregnancy in rats; 1 mg/animal/day) | Relative Molar Binding-affinity RBA (%) to the Progesterone Receptor (Progesterone Receptor) [%] | Relative Molar Binding-affinity RBA (%) to the Glucocorticoid Receptor (Glucocorticoid Receptor) [%] | further results
1 | 4-[17β-Hydroxy-17α-(1,1,1-trifluoroethyloxymethyl)-3-oxoestra-4,9-dien-11β-yl]-benzaldehyde-(1E)-oxime [Example 6] | 100 | 4/4 | 100 | 4/4 | – | – | Complete Inhibition of Pregnancy (empty uteri) (pregnancy in rats; 0.1 mg/animal/day): 0; Complete Inhibition of Pregnancy (empty uteri) N#/N (pregnancy in rats; 0.1 mg/animal/day): 0/4
2 | CC12CC(c3ccc(C=NO)cc3)C3=C4CCC(=O)C=C4CCC3C1CCC2(O)C(F)(F)F (stereo not drawn) [Compound No. 2, 4-[17β-Hydroxy-17α-(1,1,1-trifluoromethyl)-3-oxoestra-4,9-dien-11β-yl]benzaldehyde-1(Z)-oxime] | – | – | – | – | 123 | 113 | –
3 | CC12CC(c3ccc(C=NO)cc3)C3=C4CCC(=O)C=C4CCC3C1CCC2(O)C(F)(F)F (stereo not drawn) [Example 1, 4-[17β-Hydroxy-17α-(trifluoromethyl)-3-oxoestra-4,9-dien-11β-yl]benzaldehyde-(1E)-oxime] | 100 | 4/4 | 100 | 4/4 | 272 | 163 | Complete Inhibition of Pregnancy (empty uteri) (pregnancy in rats; 0.03 mg/animal/day): 0; Complete Inhibition of Pregnancy (empty uteri) N#/N (pregnancy in rats; 0.03 mg/animal/day): 0/6; Complete Inhibition of Pregnancy (empty uteri) (pregnancy in rats; 0.1 mg/animal/day): 75; Complete Inhibition of Pregnancy (empty uteri) N#/N (pregnancy in rats; 0.1 mg/animal/day): 1/4
4 | CC12CC(c3ccc(C=NO)cc3)C3=C4CCC(=O)C=C4CCC3C1CCC2(O)C(F)(F)C(F)(F)F (stereo not drawn) [Example 2, 4-[17β-Hydroxy-17α-(1,1,2,2,2-pentafluoroethyl)-3-oxoestra-4,9-dien-11β-yl]-benzaldehyde-(1E)-oxime] | – | – | 100 | 5/5 | 23 | 10 | –
5 | CCNC(=O)ON=Cc1ccc(C2CC3(C)C(CCC3(O)C(F)(F)C(F)(F)F)C3CCC4=CC(=O)CCC4=C23)cc1 (stereo not drawn) [Example 3, 4-[17β-Hydroxy-17α-(1,1,2,2,2-pentafluoroethyl)-3-oxoestra-4,9-dien-11β-yl]-benzaldehyd-1-one-(1E)-{O-(ethylamino)carbonyl-oxime] | – | – | 100 | 4/4 | 230 | 84 | –
6 | COC1(C(F)(F)C(F)(F)F)CCC2C3CCC4=CC(=O)CCC4=C3C(c3ccc(C=NO)cc3)CC21C (stereo not drawn) [Example 4, 4-[17β-Methoxy-17α-(1,1,2,2,2-pentafluoroethyl)-3-oxoestra-4,9-dien-11β-yl]-benzaldehyde-(1E)-oxime] | – | – | 50 | 2/4 | – | – | –
7 | CN(C)c1ccc([C@H]2C[C@]3(C)[C@@H](CC[C@]3(O)CCCO)[C@@H]3CCC4=CC(=O)CCC4=C32)cc1 [Onapristone, reference compound] | – | – | – | – | 22 | 39 | –
8 | CC#C[C@]1(O)CC[C@H]2[C@@H]3CCC4=CC(=O)CCC4=C3[C@@H](c3ccc(N(C)C)cc3)C[C@@]21C [RU 486, 11β-(4-Dimethylaminophenyl)-17β-hydroxy-17α-propinyl-estra-4,9-dien-3-one, reference compound] | 0 | 0/5 | 20 | 1/5 | – | – | Complete Inhibition of Pregnancy (empty uteri) (pregnancy in rats; 3 mg/animal/day): 100; Complete Inhibition of Pregnancy (empty uteri) N#/N (pregnancy in rats; 3 mg/animal/day): 5/5
9 | CC(=O)c1ccc([C@H]2C[C@@]3(C)[C@@H](CC[C@@]3(O)C(F)(F)C(F)(F)F)[C@@H]3CCC4=CC(=O)CCC4=C32)cc1 [ZK 230 211, 11β-(4-Acetylphenyl)-17β-hydroxy-17α-(1,1,2,2,2-pentafluoroethyl)-estra-4,9-dien-3-one, reference compound] | 0 | 0/6 | 75 | 3/4 | – | – | Receptor selectivity (in words) [1]: high receptor selectivity; Complete Inhibition of Pregnancy (empty uteri) (pregnancy in rats; 3 mg/animal/day): 100; Complete Inhibition of Pregnancy (empty uteri) N#/N (pregnancy in rats; 3 mg/animal/day): 4/4; Antiproliferative activity in the tumor models (in words) (tumor models): antiproliferative activity
10 | CCNC(=O)ON=Cc1ccc(C2CC3(C)C(CCC3(O)C(F)(F)F)C3CCC4=CC(=O)CCC4=C23)cc1 (stereo not drawn) [compound 3, 4-[17β-Hydroxy-17α-(1,1,1-trifluoromethyl)-3-oxoestra-4,9-dien-11β-yl]benzaldehyde-1(E)-[O-(ethylamino)carbonyl]oxime] | – | – | – | – | 98 | 187 | –
11 | CC(=O)ON=Cc1ccc(C2CC3(C)C(CCC3(O)C(F)(F)C(F)(F)F)C3CCC4=CC(=O)CCC4=C23)cc1 (stereo not drawn) [compound 5, 4-[17β-Hydroxy-17α-(1,1,2,2,2-pentafluoroethyl)-3-oxoestra-4,9-dien-11β-yl]benzaldehyde-1(E)-O-acetyloxime] | – | – | – | – | 0.5 | 10 | –
